Data from PubChem BioAssay AID1963981 (Molecular Pharmacology Branch, DTP, NCI, 2024).

System: 354836-022-R-J1-PDC multicell spheroid viability
Experiment: Anticancer human tumor 354836-022-R-J1-PDC patient-derived head and neck squamous cell carcinoma cell line growth inhibition [PI3K]
Settings: for IC50: curve of first compound; for viability, T/C: stronger effect = lower value
Method in brief: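 Targeted small molecules plus PI3K inhibitors, half-log dose series from Cmax (default top 10 microM), were applied to heterotypic spheroids of cancer cells with HUVEC and MSCs. Viability indicated growth inhibition.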

[1] = second compound 0.00316 µM, first compound 0.0316 µM
[2] = second compound 0.00316 µM, first compound 0.1 µM
[3] = second compound 0.00316 µM, first compound 0.316 µM
[4] = second compound 0.00316 µM, first compound 1 µM
[5] = second compound 0.00316 µM, first compound 3.16 µM
[6] = second compound 0.00316 µM, first compound 10 µM
[7] = second compound 0.01 µM, first compound 0.0316 µM
[8] = second compound 0.01 µM, first compound 0.1 µM
[9] = second compound 0.01 µM, first compound 0.316 µM
[10] = second compound 0.01 µM, first compound 1 µM
[11] = second compound 0.01 µM, first compound 3.16 µM
[12] = second compound 0.01 µM, first compound 10 µM
[13] = second compound 0.0316 µM, first compound 0.0316 µM
[14] = second compound 0.0316 µM, first compound 0.1 µM
[15] = second compound 0.0316 µM, first compound 0.316 µM
[16] = second compound 0.0316 µM, first compound 1 µM
[17] = second compound 0.0316 µM, first compound 3.16 µM
[18] = second compound 0.0316 µM, first compound 10 µM
[19] = second compound 0.1 µM, first compound 0.0316 µM
[20] = second compound 0.1 µM, first compound 0.1 µM
[21] = second compound 0.1 µM, first compound 0.316 µM
[22] = second compound 0.1 µM, first compound 1 µM
[23] = second compound 0.1 µM, first compound 3.16 µM
[24] = second compound 0.1 µM, first compound 10 µM
[25] = second compound 0.316 µM, first compound 0.0316 µM
[26] = second compound 0.316 µM, first compound 0.1 µM
[27] = second compound 0.316 µM, first compound 0.316 µM
[28] = second compound 0.316 µM, first compound 1 µM
[29] = second compound 0.316 µM, first compound 3.16 µM
[30] = second compound 0.316 µM, first compound 10 µM
[31] = second compound 1 µM, first compound 0.0316 µM
[32] = second compound 1 µM, first compound 0.1 µM
[33] = second compound 1 µM, first compound 0.316 µM
[34] = second compound 1 µM, first compound 1 µM
[35] = second compound 1 µM, first compound 3.16 µM
[36] = second compound 1 µM, first compound 10 µM
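Further: spheroids exposed to agents for seven days before the viability read.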

## C[C@@H](NC(=O)c1ncnc(N)c1Cl)c1ncc(C(=O)Nc2cc(C(F)(F)F)c(Cl)cn2)s1 + COc1c(OCCCN2CCOCC2)ccc2c3n(c(=NC(=O)c4cnc(N)nc4)nc12)CCN3
Second compound 0.00316 µM
  IC50: > 10000 nM
Second compound 0.01 µM
  IC50: > 10000 nM
Second compound 0.0316 µM
  IC50: > 10000 nM
Second compound 0.1 µM
  IC50: > 10000 nM
Second compound 0.316 µM
  IC50: < 31.6 nM
Second compound 1 µM
  IC50: < 31.6 nM
[1]
  viability, T/C: 91.8%
[2]
  viability, T/C: 112%
[3]
  viability, T/C: 96.9%
[4]
  viability, T/C: 109%
[5]
  viability, T/C: 98.5%
[6]
  viability, T/C: 97%
[7]
  viability, T/C: 105%
[8]
  viability, T/C: 101%
[9]
  viability, T/C: 96.5%
[10]
  viability, T/C: 119%
[11]
  viability, T/C: 102%
[12]
  viability, T/C: 78.1%
[13]
  viability, T/C: 76%
[14]
  viability, T/C: 81.8%
[15]
  viability, T/C: 86.5%
[16]
  viability, T/C: 86.9%
[17]
  viability, T/C: 84.2%
[18]
  viability, T/C: 71.5%
[19]
  viability, T/C: 58.2%
[20]
  viability, T/C: 43.7%
[21]
  viability, T/C: 55.6%
[22]
  viability, T/C: 55%
[23]
  viability, T/C: 55.1%
[24]
  viability, T/C: 47.9%
[25]
  viability, T/C: 11.2%
[26]
  viability, T/C: 14.4%
[27]
  viability, T/C: 13.4%
[28]
  viability, T/C: 18%
[29]
  viability, T/C: 24.4%
[30]
  viability, T/C: 9.94%
[31]
  viability, T/C: 2.2%
[32]
  viability, T/C: 1.73%
[33]
  viability, T/C: 1.92%
[34]
  viability, T/C: 1.84%
[35]
  viability, T/C: 2.33%
[36]
  viability, T/C: 1.65%

## Cn1ncc(Cl)c1-c1cc(C(=O)NC(CN)Cc2cccc(F)c2)sc1Cl (stereo unspecified) + COc1c(OCCCN2CCOCC2)ccc2c3n(c(=NC(=O)c4cnc(N)nc4)nc12)CCN3
Second compound 0.00316 µM
  IC50: 148 nM
Second compound 0.01 µM
  IC50: 220 nM
Second compound 0.0316 µM
  IC50: 116 nM
Second compound 0.1 µM
  IC50: < 31.6 nM
Second compound 0.316 µM
  IC50: < 31.6 nM
Second compound 1 µM
  IC50: < 31.6 nM
[1]
  viability, T/C: 78%
[2]
  viability, T/C: 56%
[3]
  viability, T/C: 37.3%
[4]
  viability, T/C: 23.2%
[5]
  viability, T/C: 8.77%
[6]
  viability, T/C: 1.45%
[7]
  viability, T/C: 73%
[8]
  viability, T/C: 74.2%
[9]
  viability, T/C: 37.2%
[10]
  viability, T/C: 19%
[11]
  viability, T/C: 8.38%
[12]
  viability, T/C: 1.92%
[13]
  viability, T/C: 66.7%
[14]
  viability, T/C: 52.8%
[15]
  viability, T/C: 33.1%
[16]
  viability, T/C: 16.1%
[17]
  viability, T/C: 8.7%
[18]
  viability, T/C: 2.85%
[19]
  viability, T/C: 45.2%
[20]
  viability, T/C: 33.6%
[21]
  viability, T/C: 20.1%
[22]
  viability, T/C: 8.6%
[23]
  viability, T/C: 2.88%
[24]
  viability, T/C: 0.98%
[25]
  viability, T/C: 14.4%
[26]
  viability, T/C: 10.3%
[27]
  viability, T/C: 5.2%
[28]
  viability, T/C: 2.69%
[29]
  viability, T/C: 3.48%
[30]
  viability, T/C: 1.06%
[31]
  viability, T/C: 1.56%
[32]
  viability, T/C: 1.83%
[33]
  viability, T/C: 1.63%
[34]
  viability, T/C: 2.2%
[35]
  viability, T/C: 1.8%
[36]
  viability, T/C: 1.4%

## Cn1ncnc1[C@H]1c2n[nH]c(=O)c3cc(F)cc(c23)N[C@@H]1c1ccc(F)cc1 + COc1c(OCCCN2CCOCC2)ccc2c3n(c(=NC(=O)c4cnc(N)nc4)nc12)CCN3
Second compound 0.00316 µM
  IC50: > 100 nM
Second compound 0.01 µM
  IC50: > 100 nM
Second compound 0.0316 µM
  IC50: > 100 nM
Second compound 0.1 µM
  IC50: 14.9 nM
Second compound 0.316 µM
  IC50: < 0.316 nM
Second compound 1 µM
  IC50: < 0.316 nM
Second compound 0.00316 µM, first compound 0.000316 µM
  viability, T/C: 98.6%
Second compound 0.00316 µM, first compound 0.001 µM
  viability, T/C: 102%
Second compound 0.00316 µM, first compound 0.00316 µM
  viability, T/C: 95.6%
Second compound 0.00316 µM, first compound 0.01 µM
  viability, T/C: 101%
[1]
  viability, T/C: 98.2%
[2]
  viability, T/C: 88.5%
Second compound 0.01 µM, first compound 0.000316 µM
  viability, T/C: 93.8%
Second compound 0.01 µM, first compound 0.001 µM
  viability, T/C: 103%
Second compound 0.01 µM, first compound 0.00316 µM
  viability, T/C: 90.5%
Second compound 0.01 µM, first compound 0.01 µM
  viability, T/C: 93.1%
[7]
  viability, T/C: 95.3%
[8]
  viability, T/C: 76.2%
Second compound 0.0316 µM, first compound 0.000316 µM
  viability, T/C: 76%
Second compound 0.0316 µM, first compound 0.001 µM
  viability, T/C: 77.7%
Second compound 0.0316 µM, first compound 0.00316 µM
  viability, T/C: 88%
Second compound 0.0316 µM, first compound 0.01 µM
  viability, T/C: 83.4%
[13]
  viability, T/C: 83.1%
[14]
  viability, T/C: 69.8%
Second compound 0.1 µM, first compound 0.000316 µM
  viability, T/C: 50%
Second compound 0.1 µM, first compound 0.001 µM
  viability, T/C: 50.7%
Second compound 0.1 µM, first compound 0.00316 µM
  viability, T/C: 52%
Second compound 0.1 µM, first compound 0.01 µM
  viability, T/C: 57.5%
[19]
  viability, T/C: 57.8%
[20]
  viability, T/C: 37%
Second compound 0.316 µM, first compound 0.000316 µM
  viability, T/C: 15.2%
Second compound 0.316 µM, first compound 0.001 µM
  viability, T/C: 16.3%
Second compound 0.316 µM, first compound 0.00316 µM
  viability, T/C: 14.5%
Second compound 0.316 µM, first compound 0.01 µM
  viability, T/C: 13.9%
[25]
  viability, T/C: 13.5%
[26]
  viability, T/C: 7.08%
Second compound 1 µM, first compound 0.000316 µM
  viability, T/C: 2.45%
Second compound 1 µM, first compound 0.001 µM
  viability, T/C: 1.53%
Second compound 1 µM, first compound 0.00316 µM
  viability, T/C: 1.71%
Second compound 1 µM, first compound 0.01 µM
  viability, T/C: 2.18%
[31]
  viability, T/C: 2.36%
[32]
  viability, T/C: 1.28%
